ChEMBL document CHEMBL4477222, “Discovery of Novel Thiophene-Based, Thumb Pocket 2 Allosteric Inhibitors of the Hepatitis C NS5B Polymerase with Improved Potency and Physicochemical Profiles” (J Med Chem, 2016)
pEC50: −log10 of the molar value.

What was measured:
[1] = Cytotoxicity against human W11.8 cells assessed as reduction in cell viability after 4 days; assay type: cell-based
[2] = Cytotoxicity against human Huh7ET cells assessed as reduction in cell viability after 4 days; assay type: cell-based
Nonstructural protein 5A = Nonstructural protein 5A (Hepatitis C virus, UniProt Q5L478); assay: Inhibition of HCV genotype 2a NS5A; set-up: species or system Hepatitis C virus subtype 2a
[3] = molecular target: RNA-directed RNA polymerase (Hepacivirus hominis, UniProt O39930, L419I); assay: Inhibition of HCV genotype 1a NS5B L419I mutant; set-up: species or system Hepatitis C virus subtype 1a
Hepatitis C virus = assay: Antiviral activity against HCV genotype 1 infected in human assessed as log10 reduction in viral load at 500 mg[…] bid for 3 days measured on day 4 post treatment; assay type: functional, Hepacivirus hominis
[4] = molecular target: RNA-directed RNA polymerase (Hepacivirus hominis, UniProt O39930, M423V); assay: Inhibition of HCV genotype 1a NS5B M423V mutant; set-up: species or system Hepatitis C virus subtype 1a
[5] = molecular target: RNA-directed RNA polymerase (Hepacivirus hominis, UniProt O39930, M423I); assay: Inhibition of HCV genotype 1a NS5B M423I mutant; set-up: species or system Hepatitis C virus subtype 1a
[6] = molecular target: Nonstructural protein 5A (Hepatitis C virus) (UniProt Q5L478); assay: Ratio of EC50 for HCV genotype 1b NS5A infected in human l389lucubi- neo/NS3-375.1-containing Huh7ET cells in presence of 40% human serum to EC50 for HCV genotype 1b NS5A infected in human l389lucubi- neo/NS3-375.1-containing Huh7ET cells; details: Hepatitis C virus subtype 1b
[7] = molecular target: RNA-directed RNA polymerase (Hepacivirus hominis, UniProt O39930, L419M); assay: Inhibition of HCV genotype 1a NS5B L419M mutant; set-up: species or system Hepatitis C virus subtype 1a
[8] = molecular target: RNA-directed RNA polymerase (Hepacivirus hominis, UniProt O39930, M423T); assay: Inhibition of HCV genotype 1a NS5B M423T mutant; set-up: species or system Hepatitis C virus subtype 1a

Structure (SMILES) | CC50 at 96 h [1] | CC50 at 96 h [2] | further results
CC(C)(C)C#Cc1cc(N(CC(=O)N2CCC(O)CC2)C(=O)[C@H]2CC[C@H](C)CC2)c(C(=O)O)s1 | > 20 µM | > 20 µM | –
CNC(=O)CN(c1cc(C#CC(C)(C)C)sc1C(=O)O)C(=O)[C@H]1CC[C@H](C)CC1 | > 20 µM | > 20 µM | –
CC[C@@H](C(=O)N(C)C)N(c1cc(C#CC(C)(C)C)sc1C(=O)O)C(=O)[C@H]1CC[C@H](C)CC1 | > 20 µM | > 20 µM | –
CC(C)(C)C#Cc1cc(N(CC(=O)N2CC(O)C2)C(=O)[C@H]2CC[C@H](C)CC2)c(C(=O)O)s1 | > 20 µM | > 20 µM | –
COC[C@@H](C(=O)N(C)C)N(c1cc(C#CC(C)(C)C)sc1C(=O)O)C(=O)[C@H]1CC[C@H](C)CC1 | > 20 µM | > 20 µM | –
CC(C)[C@@H](C(=O)N(C)C)N(c1cc(C#CC(C)(C)C)sc1C(=O)O)C(=O)[C@H]1CC[C@H](C)CC1 | > 20 µM | > 20 µM | –
CCN(CC)C(=O)CN(c1cc(C#CC(C)(C)C)sc1C(=O)O)C(=O)[C@H]1CC[C@H](C)CC1 | > 20 µM | > 20 µM | –
CN1CCN(C(=O)CN(c2cc(C#CC(C)(C)C)sc2C(=O)O)C(=O)[C@H]2CC[C@H](C)CC2)CC1 | > 20 µM | > 20 µM | –
CN(C)CCN(C)C(=O)CN(c1cc(C#CC(C)(C)C)sc1C(=O)O)C(=O)[C@H]1CC[C@H](C)CC1 | > 20 µM | > 20 µM | –
CC(C)(C)C#Cc1cc(N(C(=O)[C@H]2CC[C@H](C)CC2)[C@H]2CC[C@H](O)CC2)c(C(=O)O)s1 [LOMIBUVIR] | > 20 µM | > 20 µM | pEC50 (Nonstructural protein 5A): 5.09; pEC50 [3]: 6.49; FC (Hepatitis C virus): 3.4; pEC50 [4]: 7.19; pEC50 [5]: 7.52; Ratio EC50 [6]: 10 to 20; pEC50 [7]: 6.49; pEC50 [8]: 6.51
CC(C)NC(=O)CN(c1cc(C#CC(C)(C)C)sc1C(=O)O)C(=O)[C@H]1CC[C@H](C)CC1 | > 20 µM | > 20 µM | –
C[C@@H](C(=O)N(C)C)N(c1cc(C#CC(C)(C)C)sc1C(=O)O)C(=O)[C@H]1CC[C@H](C)CC1 | > 20 µM | > 20 µM | –
CN(C)C(=O)CN(c1cc(C#CC(C)(C)C)sc1C(=O)O)C(=O)[C@H]1CC[C@H](C)CC1 | > 20 µM | > 20 µM | –
CN(C)C(=O)[C@H](CO)N(c1cc(C#CC(C)(C)C)sc1C(=O)O)C(=O)[C@H]1CC[C@H](C)CC1 | > 20 µM | > 20 µM | –
CC(C)(C)C#Cc1cc(N(CC(=O)N2CCCC2)C(=O)[C@H]2CC[C@H](C)CC2)c(C(=O)O)s1 | > 20 µM | > 20 µM | –
CCC[C@@H](C(=O)N(C)C)N(c1cc(C#CC(C)(C)C)sc1C(=O)O)C(=O)[C@H]1CC[C@H](C)CC1 | > 20 µM | > 20 µM | –
CC(C)(C)C#Cc1cc(N(CC(=O)N2CCCCC2)C(=O)[C@H]2CC[C@H](C)CC2)c(C(=O)O)s1 | > 20 µM | > 20 µM | –
COC1CCN(C(=O)CN(c2cc(C#CC(C)(C)C)sc2C(=O)O)C(=O)[C@H]2CC[C@H](C)CC2)CC1 | > 20 µM | > 20 µM | –
C[C@H](C(=O)N(C)C)N(c1cc(C#CC(C)(C)C)sc1C(=O)O)C(=O)[C@H]1CC[C@H](C)CC1 | > 20 µM | > 20 µM | –
